Reference: PMC7246765, “Development of a Radiofluorinated Adenosine A2B Receptor Antagonist as Potential Ligand for PET Imaging” (International Journal of Molecular Sciences, 2020)
Where two headings read alike, the source gives them in different places.

What was measured:
[1] = target: T1, human adenosine A2A receptor (Homo sapiens, UniProt P29274); experiment: Competitive radioligand binding with [3H]MSX-2, membranes of CHO or HEK cells; conditions: for Selectivity Ratio Ki(Ax)/Ki(A2B): A2A/A2B: ratio of Ki values
T1 construct: host or cells: CHO or HEK cells
T1 sequence (P29274 whole entry): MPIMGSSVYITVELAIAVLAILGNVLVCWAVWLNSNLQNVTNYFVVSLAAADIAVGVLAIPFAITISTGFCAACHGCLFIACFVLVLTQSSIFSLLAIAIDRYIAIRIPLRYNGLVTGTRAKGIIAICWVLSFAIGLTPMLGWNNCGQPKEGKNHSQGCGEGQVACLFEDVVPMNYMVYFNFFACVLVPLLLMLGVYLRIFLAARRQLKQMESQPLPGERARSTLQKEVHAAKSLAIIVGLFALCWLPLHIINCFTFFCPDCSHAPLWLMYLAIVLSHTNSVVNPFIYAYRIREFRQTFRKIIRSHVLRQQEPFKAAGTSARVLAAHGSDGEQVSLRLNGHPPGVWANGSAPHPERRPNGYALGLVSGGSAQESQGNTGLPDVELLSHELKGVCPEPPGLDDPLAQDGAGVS
Description: (§1) The binding affinities of 2 and 9 at the four human adenosine receptor subtypes A2B, A2A, A1, and A3, presented in Table 1, were determined in competitive binding assays using appropriate radioligands and membrane preparations of Chinese hamster ovary (CHO) cells or human embryonic kidney (HEK) cells, respectively, recombinantly expressing the corresponding human receptor subtype.
(§2) Membrane preparations of recombinant CHO or HEK (human embryonic kidney) cells expressing the respective human adenosine receptor subtype were obtained according to Borrman et al. or purchased from Perkin Elmer, Germany. Radioligand binding assays using human A1, A2A, A2B and A3 receptors were performed according to Alnouri et al..
[^3H]3-(3-hydroxypropyl)-7-methyl-8-(m-methoxystyryl)-1-propargylxanthine, ([^3H]MSX-2, molar activity: 84 Ci/mmol, 1 nM [29]) for the A2A receptor,
(§3) [^3H](R)-8-ethyl-4-methyl-2-(phenyl)1,4,7,8-tetrahydro-5H-imidazo[2,1-i]purin-5-one ([^3H]PSB-11, molar activity: 53 Ci/mmol, 1 nM [30]) for the A3 receptor. Three separate experiments were performed to determine the Ki values. All data were analyzed with GraphPad Prism, Version 4.1 (GraphPad Inc., La Jolla, CA,USA).

[2] = target: T2, human adenosine A1 receptor (Homo sapiens, UniProt P30542); experiment: Competitive radioligand binding with [3H]CCPA, membranes of CHO or HEK cells; conditions: for Selectivity Ratio Ki(Ax)/Ki(A2B): A1/A2B: ratio of Ki values
T2 construct: host or cells: CHO or HEK cells
T2 sequence (P30542 1-326): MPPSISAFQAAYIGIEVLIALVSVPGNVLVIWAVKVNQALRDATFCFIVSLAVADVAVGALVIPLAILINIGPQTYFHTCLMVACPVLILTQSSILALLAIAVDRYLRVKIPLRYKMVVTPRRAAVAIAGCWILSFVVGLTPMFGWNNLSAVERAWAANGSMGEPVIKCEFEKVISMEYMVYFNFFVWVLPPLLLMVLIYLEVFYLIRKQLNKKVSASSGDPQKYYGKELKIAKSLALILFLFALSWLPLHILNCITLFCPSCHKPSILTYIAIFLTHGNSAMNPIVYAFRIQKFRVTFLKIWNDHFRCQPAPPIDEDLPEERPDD
Description: as §1, §2
[^3H]2-Chloro-N^6cyclopentyladenosine ([^3H]CCPA, molar activity: 58 Ci/mmol, 1 nM [28]) for the A1 receptor,
as §3

[3] = target: T3, human adenosine A3 receptor (Homo sapiens, UniProt P0DMS8); experiment: Competitive radioligand binding with [3H]PSB-11, membranes of CHO or HEK cells; conditions: for Selectivity Ratio Ki(Ax)/Ki(A2B): A3/A2B: ratio of Ki values
T3 construct: host or cells: CHO or HEK cells
T3 sequence (P0DMS8 1-318): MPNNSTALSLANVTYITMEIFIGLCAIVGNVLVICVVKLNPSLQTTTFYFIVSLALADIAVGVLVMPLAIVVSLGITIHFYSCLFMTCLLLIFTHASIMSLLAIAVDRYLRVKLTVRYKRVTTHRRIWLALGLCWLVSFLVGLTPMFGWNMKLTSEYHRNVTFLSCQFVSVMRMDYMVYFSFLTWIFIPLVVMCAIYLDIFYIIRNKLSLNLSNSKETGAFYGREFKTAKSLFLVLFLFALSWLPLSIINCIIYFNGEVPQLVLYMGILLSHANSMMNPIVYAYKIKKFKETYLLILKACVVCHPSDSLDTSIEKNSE
Description: as §1, §2, §3

[4] = target: T4, human adenosine A2B receptor (Homo sapiens, UniProt P29275); conditions: cited from earlier work
T4 construct: host or cells: CHO or HEK cells
T4 sequence (P29275 1-332): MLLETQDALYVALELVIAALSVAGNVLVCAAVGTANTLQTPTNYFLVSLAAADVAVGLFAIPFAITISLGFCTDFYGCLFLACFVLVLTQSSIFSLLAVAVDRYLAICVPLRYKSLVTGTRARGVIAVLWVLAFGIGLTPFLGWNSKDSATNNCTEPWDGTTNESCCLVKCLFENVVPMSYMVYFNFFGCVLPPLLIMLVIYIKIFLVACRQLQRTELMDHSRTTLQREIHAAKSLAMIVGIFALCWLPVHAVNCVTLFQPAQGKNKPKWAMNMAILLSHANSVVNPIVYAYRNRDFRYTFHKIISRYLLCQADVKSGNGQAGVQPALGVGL

[5] = target: T1, human adenosine A2A receptor; conditions: cited from earlier work
[6] = target: T2, human adenosine A1 receptor; conditions: cited from earlier work
[7] = target: T3, human adenosine A3 receptor; conditions: cited from earlier work
[8] = target: T4, human adenosine A2B receptor; experiment: Competitive radioligand binding with [3H]PSB-603, membranes of CHO or HEK cells; conditions: mean ± SEM of three independent assays
Description: as §1, §2
[^3H]8-(4-[4-(4-chlorophenyl)piperazine-1-sulfonyl]phenyl)-1-propyl-2,3,6,7-tetrahydro-1H-purine-2,6-dione ([^3H]PSB-603, molar activity: 73Ci/mmol, 0.3 nM [26]) for the A2B receptor, and
as §3

[9] = set-up: method as in PMID 20138516; conditions: in vitro, rat hepatic microsomes; cited from earlier work

Selectivity Ratio Ki(Ax)/Ki(A2B): A2A/A2B [1]	Selectivity Ratio Ki(Ax)/Ki(A2B): A1/A2B [2]	Selectivity Ratio Ki(Ax)/Ki(A2B): A3/A2B [3]	Ki [8]	Ki ([1]; [3H]MSX-2, mean ± SEM of three independent assays)	Ki ([2]; [3H]CCPA, mean ± SEM of three independent assays)	Ki ([3]; [3H]PSB-11, mean ± SEM of three independent assays)	Compound	Ki [4]	Ki [5]	Ki [6]	Ki [7]	metabolic stability [9]
13	4.5	188	–	–	–	–	O=C(Nc1cnc(-c2ccnc(F)c2)c(-c2ccccc2F)n1)C1CC1 [Compound 1]	0.00424 ± 4e-05 µM	0.055 ± 0.0061 µM	0.019 ± 0.0052 µM	0.796 ± 0.026 µM	–
39	> 400	> 400	0.00251 ± 0.0011 µM	0.0988 ± 0.0283 µM	> 1 µM	> 1 µM	O=c1[nH]c(=O)c2cc(-c3ccncn3)c(-c3ccco3)nc2[nH]1 [Compound 2, 7-(Furan-2-yl)-6-(pyrimidin-4-yl)pyrido[2,3-d]pyrimidine-2,4-(1H,3H)-dione]	–	–	–	–	high metabolic stability
